We go through five compounds from publication PMC3478562 (Biochemical pharmacology, 2011).

The structures appear in SMILES notation. ≈ marks a conversion by molar mass, not a printed value. Bounds are passed on as bounds.

Experiment [1] deals with Streptococcus pyogenes 712. Briefly: Antimicrobial activity spectrum MIC. It is filed as cell-based.
The next experiment relates to Escherichia coli 102. Briefly: Antimicrobial activity spectrum MIC. It counts as cell-based.
Experiment [2] deals with Pseudomonas aeruginosa 1380. The experiment can be described thus: Antimicrobial activity spectrum MIC. It is filed as cell-based.
Experiment [3] has as its system Staphylococcus epidermidis 831. Briefly: Antimicrobial activity spectrum MIC. It is filed as cell-based.
A further experiment has as its system Enterococcus faecium 800. The experiment can be described thus: Antimicrobial activity spectrum MIC. It is filed as cell-based.
In experiment [4] the test system is Klebsiella pneumoniae 1339. The experiment can be described thus: Antimicrobial activity spectrum MIC. It is filed as cell-based.
Experiment [5] has as its system Escherichia coli 120 (acrAB efflux pump deletion). Briefly: microbe, parasite or virus in culture. It counts as cell-based.
Another experiment concerns Proteus mirabilis 1360. The experiment can be described thus: Antimicrobial activity spectrum MIC. It counts as cell-based.
Experiment [6] relates to Enterococcus faecalis 101. The experiment can be described thus: Antimicrobial activity spectrum MIC. It counts as cell-based.
Experiment [7] deals with Streptococcus pneumoniae 1195. Briefly: Antimicrobial activity spectrum MIC. It counts as cell-based.
In a further experiment the test system is Candida albicans 2000. Briefly: Antimicrobial activity spectrum MIC. It is filed as cell-based.
Another experiment relates to Aspergillus niger 624. Briefly: Antimicrobial activity spectrum MIC. It counts as cell-based.
Experiment [8] deals with S. aureus USA300-alr (Alr overexpressing). The experiment can be described thus: MIC in wild type and Alr overexpressing strains. The following applies: Staphylococcus aureus.
Experiment [9] relates to Staphylococcus aureus 328. Briefly: S. aureus MIC, broth microdilution. In general terms: Dilution methods test growth across graded concentrations, often in twofold steps.
For experiment [10], the target named is T1, Alr (Staphylococcus aureus, UniProt Q6GF03). The experiment can be described thus: Inhibitor reversibility: pre-incubation and dialysis. It is filed as biochemical. Particulars: pre-incubated 30 minutes, dialyzed for 16 hours.
In experiment [11] the test system is Staphylococcus aureus PCI 124. The experiment can be described thus: S. aureus MIC, broth microdilution. The following applies: PCI124.
Experiment [12] relates to Staphylococcus aureus HFH-30032. The experiment can be described thus: S. aureus MIC, broth microdilution. The following applies: HFH30032.
The test system of experiment [13] is Staphylococcus aureus FDA 209. The experiment can be described thus: S. aureus MIC, broth microdilution. Particulars: FDA209.
Experiment [14] concerns S. aureus N315-alr (Alr overexpressing). The experiment can be described thus: MIC in wild type and Alr overexpressing strains. The following applies: Staphylococcus aureus.
In experiment [15] the target is T1, Alr. Briefly: Inhibitor reversibility: IC50 after pre-incubation with the enzyme. It counts as biochemical. Particulars: pre-incubation 30 minutes vs 6 hours (16 hours).
Experiment [16] deals with Staphylococcus aureus HFH-30364. The experiment can be described thus: S. aureus MIC, broth microdilution. Particulars: HFH30364.
The next experiment has as its system S. aureus N315. Briefly: MIC in wild type and Alr overexpressing strains. Particulars: Staphylococcus aureus.
A further experiment has as its system S. aureus USA 300. Briefly: MIC in wild type and Alr overexpressing strains. Particulars: Staphylococcus aureus, USA300.
Experiment [17] deals with Staphylococcus aureus HFH-30522. Briefly: S. aureus MIC, broth microdilution. Particulars: HFH30522.
Experiment [18] has as its system Staphylococcus aureus PCI 1158. The experiment can be described thus: S. aureus MIC, broth microdilution. The following applies: PCI1158.
Experiment [19] concerns Staphylococcus aureus HFH-29568. Briefly: S. aureus MIC, broth microdilution. Particulars: HFH29568.

T1 sequence (Q6GF03 whole entry): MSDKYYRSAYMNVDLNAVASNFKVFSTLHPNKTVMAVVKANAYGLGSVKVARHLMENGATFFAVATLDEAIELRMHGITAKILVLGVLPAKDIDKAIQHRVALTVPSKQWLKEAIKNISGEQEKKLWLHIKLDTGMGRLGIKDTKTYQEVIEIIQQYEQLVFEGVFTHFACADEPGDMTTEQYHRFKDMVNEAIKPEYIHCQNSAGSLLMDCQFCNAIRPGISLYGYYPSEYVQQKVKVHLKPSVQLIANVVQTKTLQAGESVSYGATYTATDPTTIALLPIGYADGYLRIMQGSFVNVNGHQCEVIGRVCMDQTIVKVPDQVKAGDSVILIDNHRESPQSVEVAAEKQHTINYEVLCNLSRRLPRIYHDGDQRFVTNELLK

For the compound `C[C@@H]1[C@H](O)[C@@H](C)/C=C/C=C/C=C/C=C/C=C/C=C/C=C/[C@H](O[C@@H]2O[C@H](C)[C@@H](O)[C@H](N)[C@@H]2O)C[C@@H]2O[C@](O)(C[C@@H](O)C[C@@H](O)[C@H](O)CC[C@@H](O)C[C@@H](O)CC(=O)O[C@H]1C)C[C@H](O)[C@H]2C(=O)O` [AMPB, Amphotericin B], the MIC (in [1]; with Escherichia coli 102; in [2]; in experiment [3]; in the experiment on Enterococcus faecium 800; in experiment [4]) was over 64 µg/mL each time. In addition, the MIC (in [5]; in the experiment on Proteus mirabilis 1360; in experiment [6]; in experiment [7]) was over 64 µg/mL throughout.

For `O=C(O)c1cn(C2CC2)c2cc(N3CCNCC3)c(F)cc2c1=O` [Cipro, Ciprofloxacin], the MIC was over 16 µg/mL in experiment [3]; over 16 µg/mL with Enterococcus faecium 800; over 64 µg/mL in the experiment on Candida albicans 2000; over 64 µg/mL in the experiment on Aspergillus niger 624; 0.5 µg/mL (≈ 1.51 µM) in [7].

For the compound `N[C@@H]1CON=C1O` [DCS, D-cycloserine], the MIC in experiment [8] is 25 µg/mL (≈ 245 µM); in experiment [9], 12.5 µg/mL (≈ 122 µM); in experiment [11], 12.5 µg/mL (≈ 122 µM); in experiment [12], 12.5 µg/mL (≈ 122 µM); in experiment [13] it was 12.5 µg/mL (≈ 122 µM); in [14], 25 µg/mL (≈ 245 µM). The MIC in experiment [16] was 12.5 µg/mL (≈ 122 µM); in the experiment with S. aureus N315 it was 25 µg/mL (≈ 245 µM); with S. aureus USA 300 it was 25 µg/mL (≈ 245 µM); in experiment [17], 12.5 µg/mL (≈ 122 µM); in experiment [18], 12.5 µg/mL (≈ 122 µM); in experiment [19], 12.5 µg/mL (≈ 122 µM). At Alr [10], the “recovery of Alr activity after dialysis” value is recorded as “no increase in activity”. Also, the “change of IC50 values with longer pre-incubation time” value at Alr [15] was “a significant reduction in the IC50 values occurs with longer pre-incubation time”.

For `CC(=O)OC[C@H](N)C(=O)O` [O-acetyl-L- serine, O-acetyl-L-serine], at Alr [15], the “change of IC50 values with longer pre-incubation time” value is reported as “no significant reduction in IC50 values”.

As to `CCC(=O)[O-].[Na+]` [sodium propionate], the “recovery of Alr activity after dialysis” value at Alr [10] is reported as “recovery of Alr activity”.
